The test system of one assay is H4/APP cells. The assay is described as follows: Secretion of total beta-amyloid into culture medium of H4/APP cells (ELISA). It is filed as cell-based, Human. Conditions: for activity at 10 µM / activity at 30 µM: read-out: beta-amyloid concentration in culture medium; for beta-amyloid concentration in culture medium: h4/app cells, 120 min. The protocol: Human neuroglioma (H4) cells, stably transfected with the gene codifying for the human protein APP695 having mutations related to Alzheimer disease, have been used.
Cells were grown in OPTI-MEM containing 10% FBS (foetal bovine serum), hygromycin (0.2 mg/ml) and blasticidine (0.002 mg/ml).
The Aβ peptide in cells is produced by the sequential processing of beta- and gamma-secretases proteases and is then secreted in the culture medium.
Peptide concentration in the extracellular medium was measured using a specific ELISA methodology.
Confluent H4/APP cells where incubated for 2 h with the vehicle (0.1 % DMSO) or with nicardipine at different concentrations (3µM, 10µM, 30µM), beta-amyloid concentration in culture medium is expressed as % control

The test system of a further assay is TG2576 mice. Put plainly: Plasma amyloidogenic Aβ peptides in TG2576 mice after i.p. administration (ELISA). It is filed as in vivo. Conditions: 3 hours after 10 mg/kg i.p.; for Aβ1-42 (%) / Total Aβ (%): before treatment = 100. The protocol: The selected dihydropyridine, nicardipine (see table 2) as well as nimodipine were administered, in TG2576 animals, at dose of 10 mg/Kg i.p. Animals were bleed before treatment for assessment of basal circulating Aβ peptides as well as 3 hours post-treatment. Determination of blood amyloidogenic Aβ peptide concentration was performed using ELISA technique.
Table 2 Levels of the amyloidogenic peptides in plasma of TG2576 mice before and 3 hours following administration of the exemplified dihydropyridines

Where [1] appears, read: Homo sapiens, 10µM, 2 h incubation, confluent H4/APP cells, vehicle = 100.
Where [2] appears, read: Homo sapiens, 30µM, 2 h incubation, confluent H4/APP cells, vehicle = 100.

Like-named read-outs stand apart in the source and are kept apart here. Marks after values point to notes of the source that are not given here.

For the molecule `COC(=O)C1=C(C)NC(C)=C(C(=O)OCCCN2CCC(c3ccccc3)(c3ccccc3)CC2)C1c1cccc([N+](=O)[O-])c1` (single isomer, unassigned; (+)) [(+)Niguldipine, (+)niguldipine], in the assay with H4/APP cells (Homo sapiens, 2 h), the activity at 10 µM was 71% and the activity at 30 µM is 43%. Also, the inhibition at 30 µM with H4/APP cells (Homo sapiens, read-out: inhibition of the extracellular amount of Aβ peptides) turned out to be 57%.
For `COC(=O)C1=C(C)NC(C)=C(C(=O)OCCCN2CCC(c3ccccc3)(c3ccccc3)CC2)C1c1cccc([N+](=O)[O-])c1` (single isomer, unassigned; (-)) [(-)Niguldipine, (-)niguldipine], the “inhibition of the extracellular amount of Aβ peptides” value with H4/APP cells (30 µM) amounted to 53%. In addition, the “beta-amyloid concentration in culture medium” value in the assay on H4/APP cells (10 µM) is recorded as 68* % control; in the assay on H4/APP cells (30 µM), 47* % control.
Regarding `COC(=O)C1=C(C)NC(C)=C([N+](=O)[O-])C1c1ccccc1C(F)(F)F` (stereo not shown) [BayK 8644], the activity at 10 µM in the assay with H4/APP cells (setting [1]) worked out at 98%. Moreover, in the assay with H4/APP cells (setting [2]), the activity at 30 µM turned out to be 96%. Also, the “beta-amyloid content in culture media from H4/APP cells” value in the assay on H4/APP cells (result in words) is on record as “did not affect”.
As to `COC(=O)C1=C(C)NC(C)=C(C(=O)OCCN(C)Cc2ccccc2)C1c1cccc([N+](=O)[O-])c1` (stereo not shown) [Nicardipine, nicardipine], the activity at 10 µM in the assay on H4/APP cells (setting [1]) came to 62%. For the same molecule, the activity at 30 µM in the assay with H4/APP cells (setting [2]) was 58%. Further, in the assay on TG2576 mice, the “Aβ1-42 (%)” value is 176% and the “Total Aβ (%)” value came to 170%.
Take `COCCOC(=O)C1=C(C)NC(C)=C(C(=O)OC(C)C)C1c1cccc([N+](=O)[O-])c1` (stereo not shown) [Nimodipine, nimodipine]: in the assay on TG2576 mice, the “Aβ1-42 (%)” value was determined as 156% and the “Total Aβ (%)” value was found to be 87%. In addition, the “Total Aβ (pM)” value in the assay with TG2576 mice (n=7) is given as 759,1±27,0 pM.

Source of the values: patent publication EP1874311B1, “A METHOD FOR PREVENTING, DELAYING OR REVERTING ABNORMAL AMYLOID DEPOSITION” (Research & Innovation S.p.A., priority 2005, dated 2006).
